The values that follow are results of earlier work, collected in patent US20250367122A1, “PHARMACEUTICAL COMPOSITION CONTAINING 1-{2-[(3S,4R)-1-{[(3R,4R)-1-CYCLOPENTYL-3-FLUORO-4-(4-METHOXYPHENYL)PYRROLIDIN-3-YL]CARBONYL}-4-(METHOXYMETHYL)PYRROLIDIN-3-YL]-5-(TRIFLUOROMETHYL)PHENYL}PIPERIDINE-4-CARBOXYLIC ACID OR PHARMACEUTICALLY ACCEPTABLE SALT OR CO-CRYSTAL THEREOF” (MITSUBISHI TANABE PHARMA CORPORATION, priority 2022, published 2025).

In the data set the test system is melanocortin receptor (MCR). Conditions: as described in Patent Document 1.

On to `COC[C@H]1CN(C(=O)[C@]2(F)CN(C3CCCC3)C[C@H]2c2ccc(OC)cc2)C[C@@H]1c1ccc(C(F)(F)F)cc1N1CCC(C(=O)O)CC1` [Compound A, 1-{2-[(3S,4R)-1-{[(3R,4R)-1-cyclopentyl-3-fluoro-4-(4-methoxyphenyl)pyrrolidin-3-yl]carbonyl}-4-(methoxymethyl)pyrrolidin-3-yl]-5-(trifluoromethyl)phenyl}piperidine-4-carboxylic acid], for which the MCR activation effect entry is recorded as “excellent”.
